Measurements as given in patent US10246712B2, “Genetic or pharmacological reduction of PERK enhances cortical- and hippocampus-dependent cognitive function” (Carmel-Haifa University Economic Corp. Ltd, priority 2015, dated 2019).

What was measured:
PERK [1] = molecular target: T1, PERK (Rattus norvegicus, UniProt Q9Z1Z1); format: in vivo
T1 construct: the PERK shRNA lentivirus was stereotacticaly injected to the IC of adult rats; from tissue; host or cells: insular cortex of adult male Wistar Hola rats, in vivo
T1 sequence (Q9Z1Z1 28-1108): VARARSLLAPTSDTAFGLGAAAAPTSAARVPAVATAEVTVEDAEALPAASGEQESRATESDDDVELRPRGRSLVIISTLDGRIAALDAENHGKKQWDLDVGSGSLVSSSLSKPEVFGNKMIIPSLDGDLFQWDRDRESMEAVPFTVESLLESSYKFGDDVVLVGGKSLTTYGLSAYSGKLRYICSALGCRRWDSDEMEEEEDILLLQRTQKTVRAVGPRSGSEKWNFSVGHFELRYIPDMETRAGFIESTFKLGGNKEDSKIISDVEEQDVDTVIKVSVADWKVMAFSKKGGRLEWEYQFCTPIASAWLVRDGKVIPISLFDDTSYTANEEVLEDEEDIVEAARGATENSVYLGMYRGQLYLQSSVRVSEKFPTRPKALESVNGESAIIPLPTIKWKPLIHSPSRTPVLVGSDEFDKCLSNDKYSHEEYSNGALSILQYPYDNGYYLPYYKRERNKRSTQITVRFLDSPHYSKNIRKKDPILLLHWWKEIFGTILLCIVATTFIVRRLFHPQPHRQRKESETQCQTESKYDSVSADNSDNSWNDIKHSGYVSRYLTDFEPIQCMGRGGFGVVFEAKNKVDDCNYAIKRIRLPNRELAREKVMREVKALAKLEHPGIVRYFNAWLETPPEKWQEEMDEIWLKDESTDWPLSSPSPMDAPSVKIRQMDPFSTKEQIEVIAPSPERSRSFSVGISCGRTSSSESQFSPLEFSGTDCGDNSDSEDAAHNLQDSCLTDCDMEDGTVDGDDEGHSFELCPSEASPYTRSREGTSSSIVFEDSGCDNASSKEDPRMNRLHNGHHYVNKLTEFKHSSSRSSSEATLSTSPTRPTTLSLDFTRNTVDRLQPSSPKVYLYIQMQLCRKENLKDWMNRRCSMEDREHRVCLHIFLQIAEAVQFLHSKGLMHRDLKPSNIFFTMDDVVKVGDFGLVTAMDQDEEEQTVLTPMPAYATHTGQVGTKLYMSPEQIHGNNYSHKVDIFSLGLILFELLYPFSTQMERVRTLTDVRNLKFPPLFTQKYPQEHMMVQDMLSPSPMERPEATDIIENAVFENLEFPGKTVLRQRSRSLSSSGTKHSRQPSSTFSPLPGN
Description: Briefly, the rats were anesthetized by administration of equithesin (0.3 ml/100 g), comprising 2.12% (w/v) MgSO4, 10% (v/v) ethanol, 39.1% (v/v) propyleneglycol, 0.98% (w/v) sodium pentobarbital, and 4.2% (w/v) chloral hydrate. They were restrained in a stereotactic frame (Steolting Europe, Dublin-Ireland) and stainless steel guide cannulae (23-gauge) were bilaterally implanted into the insular cortex, angled at (with reference to bregma), anteroposterior=+1.2 mm, lateral±5.5 mm, and ventral 5.0 mm (1 mm ahead of injecting cannula). Two skull screws were inserted into the skull, and acrylic dental cement was applied to secure the cannulae in position. A 28 gauge stylus was inserted into each guide cannula to prevent clogging. The rats were allowed a week in individual cages to recover from the surgery, before the experimental manipulation. PERK inhibitor GSK2606414 (Axten et al., 2012) was dissolved in DMSO and further diluted in saline to a final DMSO concentration of 0.5%. A total of 1 μl of 100 nM GSK2606414 or vehicle was infused bilaterally. For microinfusion, the stylus was removed from the guide cannula and a 28 gauge injection cannula was carefully inserted, to extend 1.0 mm beyond the tip of the guide cannula. The injection cannula was connected via PE20 tubing to a Hamilton syringe (Hamilton) driven by a CMA/100 microinjection pump (Carnegie Medicine), to provide an injection rate of 1 μl/min. After 1 min of infusion, the injection cannula was kept in the guide cannula for an additional minute to minimize dragging of infused solutes along the injection tract. Locations of cannula were verified in 30 μm coronal sections.
Aversion to the novel taste, 0.3% NaCl was measured as described below.

PERK [2] = format: in vivo, mouse; conditions: CA1 punches after 100 nM infusion into CA1; vs vehicle
Description: Animals were anesthetized under 2% isoflurane using an isoflurane table top unit (HME109, Highland Medical Equipment). Under aseptic conditions, a rodent stereotaxic apparatus (Kopf Stereotaxic Alignment System Model 1900) with continuous 1% isoflurane anesthesia was used. For CA1 infusion cannula was implanted bilaterally into the CA1 region (from the bregma: −1.94 mm AP, ±1.0 mm ML, −1.0 mm DV). The implanted cannula was cemented on the skull. Each cannula was fitted with a 28 gauge dummy cannula that extended 0.1 mm beyond the tip of the guide cannula to prevent blockage of the guide cannula. After cannulation, mice were allowed to recover for 7 days before infusion of PERK inhibitor or vehicle and behavior. On conditioning day, randomly assigned mice were infused with 100 nM PERK inhibitor GSK2606414 (Axten et al., 2012) dissolved in dimethyl sulfoxide (DMSO) and further diluted in saline to a final DMSO concentration of 0.5%, via a 28-gauge infusion cannula connected by polyethylene (PE 20) tubing to a 10 μL Hamilton microsyringe (Hamilton Company). The infusion cannula protruded 0.25 mm beyond the guide cannula. For CA1 administration, infusion volume of 1 μl of 100 nM GSK2606414 or vehicle was delivered using a Harvard PHD2000 syringe pump (Harvard Apparatus) over the course of 1 min (at a rate of 1 μL/min). […]

ATF4 = test: Immunoblot of ATF4 protein levels in rat insular cortex (IC); format: in vivo; conditions: 1 μl, 100 nM injection to the IC; n=16; data not shown
Description: The rats were cannulated as described in Barki-Harrington et al. (2009). Briefly, the rats were anesthetized by administration of equithesin (0.3 ml/100 g), comprising 2.12% (w/v) MgSO4, 10% (v/v) ethanol, 39.1% (v/v) propyleneglycol, 0.98% (w/v) sodium pentobarbital, and 4.2% (w/v) chloral hydrate. They were restrained in a stereotactic frame (Steolting Europe, Dublin-Ireland) and stainless steel guide cannulae (23-gauge) were bilaterally implanted into the insular cortex, angled at (with reference to bregma), anteroposterior=+1.2 mm, lateral±5.5 mm, and ventral 5.0 mm (1 mm ahead of injecting cannula). Two skull screws were inserted into the skull, and acrylic dental cement was applied to secure the cannulae in position. […]
At the end of the behavioral procedure, the brains were removed, and snap-frozen in liquid nitrogen. […] Protein content was determined with the BCA Protein Assay Kit (GE Healthcare). […]
Samples were prepared in SDS sample buffer, subjected to 7.5-10% SDS-PAGE and Western blot analysis. […] The immunoblots were quantified with a CCD camera and Quantity One software (Bio-Rad, USA). Each sample was measured relative to the background. Phosphorylation levels were calculated as the ratio between chemiluminescence values of the antibody directed against the phosphoproteins and those of the antibody directed against the phosphorylation state independent forms of the proteins.

Structure (SMILES): Cn1cc(-c2ccc3c(c2)CCN3C(=O)Cc2cccc(C(F)(F)F)c2)c2c(N)ncnc21 [GSK2606414, 7-methyl-5-(1-{[3-(trifluoromethyl)phenyl]acetyl}-2,3-dihydro-1H-indol-5-yl)-7H-pyrrolo[2,3-d]pyrimidin-4-amine]
- aversion index (CTA memory) (PERK [1]; 0.3% NaCl + 0.075 M LiCl i.p., 1 μl 100 nM into IC 20 min prior to novel taste, n=8): 72%±3.5
- extinction of CTA (PERK [1]; single injection of 100 nM into IC during CTA): not affected
- total drinking volumes (PERK [1]; vs vehicle group throughout the behavioral procedure, data not shown): similar
- total PERK levels (PERK [2]): no effect
- reduction in ATF4 protein levels (ATF4): 30%
